# Data as given in publication PMC12621175, “Scaffold Fusion and SAR Transfer with a Chemical Language Model Generates Novel Liver X Receptor Modulators” (Journal of Medicinal Chemistry, 2025).
# “Also recorded” adds a separate entry of the source.
# Experiments:
# [1] = target: T1, LXRβ (Homo sapiens, UniProt P55055); assay: Gal4-LXRβ hybrid reporter gene assay; type: cell-based
# T1 construct: coding for the hinge region, and LBD of the canonical isoform of the respective nuclear receptor; expressed in transfected cells; host or cells: HEK293T
# T1 sequence (P55055 222-460 limits assumed): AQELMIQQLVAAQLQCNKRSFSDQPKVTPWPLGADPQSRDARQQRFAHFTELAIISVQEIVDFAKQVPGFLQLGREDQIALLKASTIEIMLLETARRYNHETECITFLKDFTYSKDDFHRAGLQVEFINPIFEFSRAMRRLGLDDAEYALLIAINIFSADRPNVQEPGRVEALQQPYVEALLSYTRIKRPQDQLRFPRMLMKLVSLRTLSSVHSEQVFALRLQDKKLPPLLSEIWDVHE
# Procedure: The LXR-responsive reporter ABCA1-pGL3 was used for the full-length reporter gene assay.
# The day before transfection, HEK293T cells were seeded in 96-well plates (4 × 10^4 cells/well). Before transfection, the medium was changed to Opti-MEM without any supplements. Transient transfection was carried out using Lipofectamine LTX reagent (Invitrogen) according to the manufacturer’s protocol with (a) pFR-Luc (Stratagene), pRL-SV40 (Promega), and the corresponding Gal4-fusion nuclear receptor plasmid or (b) the LXR-responsive reporter ABCA1-pGL3 and pRL-SV40 (Promega). […] Each concentration was tested in duplicate, and each experiment was repeated in at least three biologically independent repeats. […] Luminescence was measured with a Spark 10 M luminometer (Tecan Deutschland GmbH). Normalization of transfection efficiency and cell growth was done by division of firefly luciferase data by renilla luciferase data multiplied by 1000, resulting in relative light units (RLU). Fold activation was obtained by dividing the mean RLU of the tested compound at a respective concentration by the mean RLU of the untreated 0.1% DMSO control. […] Separate control experiments to exclude nonspecific reporter gene activation or VP16-mediated effects were performed following the same procedure in the absence of a nuclear receptor expression plasmid (pFR-Luc, pRL-SV40, and pECE-SV40-Gal4-VP16 only).
# [2] = test system: LXR/retinoid X receptor (RXR) heterodimer; assay: full-length LXR assay (LXR-responsive ABCA1 reporter, endogenous LXR) in HEK293T and HepG2 cells; type: cell-based; settings: vs 0.1% DMSO
# Text: Intrigued by the initial data on LXR modulation, we further investigated the mode-of-action of designs 1-3. As the Gal4 hybrid reporter gene assay is artificial and overexpresses LXR, we next examined LXR modulation by 1-3 in a full-length LXR assay (Figure a) based on the endogenous expression of the LXR/retinoid X receptor (RXR) heterodimer (Figure S2). Upon activation, LXR binds to response elements within the ATP-binding cassette transporter A1 (ABCA1, an LXR target gene) promoter of the reporter. […] The designs were next checked for antiproliferative effects that may compromise further in vitro characterization. […] Therefore, and due to the weak efficacy of 2, we focused further biological characterization on 1 and 3.
# (§1) For the hybrid reporter gene assays, the previously reported Gal4-fusion receptor plasmids pFA-CMV-hRORα-LBD, pFA-CMV-hRORβ-LBD, pFA-CMV-hRORγ-LBD, pFA-CMV-hLXRα-LBD, pFA-CMV-hLXRβ-LBD, pFA-CMV-hFXR-LBD, pFA-CMV-hPXR-LBD, and pFA-CMV-hRXRα-LBD, coding for the hinge region, and LBD of the canonical isoform of the respective nuclear receptor were used. pFR-Luc (Stratagene) was used as the reporter plasmid, and pRL-SV40 (Promega) was used in all assays for the normalization of transfection efficiency and cell growth. pECE-SV40-Gal4-VP16 was a gift from Lea Sistonen (Addgene plasmid #71728). The LXR-responsive reporter ABCA1-pGL3 was used for the full-length reporter gene assay.
# (§2) The day before transfection, HEK293T cells were seeded in 96-well plates (4 × 10^4 cells/well). Before transfection, the medium was changed to Opti-MEM without any supplements. […] Luminescence was measured with a Spark 10 M luminometer (Tecan Deutschland GmbH). […] EC50/IC50 values and the standard errors thereof were calculated with the mean fold activation values by OriginPro, Version 2025 (OriginLab Corporation, Northampton, MA, USA), fitting a dose–response curve with a variable Hill slope (Levenberg–Marquardt algorithm). […]
# [3] = test system: HEK293T cells; assay: resazurin-based proliferation assay, HEK293T; type: cell-based
# Procedure: (§3) HepG2 or HEK293T cells were seeded in 96-well plates (4 × 10^4 cells per well). […] After 4, 14, and 24 h, the medium was aspirated, and the cells were incubated with 100 μM resazurin solution in Opti-MEM (prepared from a 0.15 mg/mL resazurin stock in DPBS) for 60 min. The metabolic activity was assessed by conversion of resazurin to resorufin, which was quantified by measuring absorbance at 570 nm and a reference wavelength of 600 nm. The cell count was calculated from a calibration curve with 0–10^5 cells per well in steps of 2 × 10^4.
# [4] = test system: HepG2 cells; assay: resazurin-based proliferation assay, HepG2; type: cell-based
# Procedure: as §3
# [5] = target: T2, RORα (NR1F1) (Homo sapiens, UniProt P35398); assay: Gal4-RORα hybrid reporter gene assay (off-target profiling); type: cell-based
# T2 construct: coding for the hinge region, and LBD of the canonical isoform of the respective nuclear receptor; expressed in transfected cells; host or cells: HEK293T
# T2 sequence (P35398 272-510 limits assumed): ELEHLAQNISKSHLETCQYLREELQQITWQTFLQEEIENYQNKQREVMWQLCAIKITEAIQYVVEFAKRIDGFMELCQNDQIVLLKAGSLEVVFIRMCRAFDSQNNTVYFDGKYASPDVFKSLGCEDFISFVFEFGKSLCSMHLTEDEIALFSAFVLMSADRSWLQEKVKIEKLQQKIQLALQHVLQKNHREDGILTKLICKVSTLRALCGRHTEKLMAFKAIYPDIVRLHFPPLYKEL
# Text: as §1, §2
# [6] = test system: ABCA1; assay: qPCR of LXR-regulated mRNA expression in HepG2: ABCA1; type: cell-based, human; settings: HepG2, 24 h
# [7] = test system: APOE; assay: qPCR of LXR-regulated mRNA expression in HepG2: APOE; type: cell-based, human; settings: HepG2, 24 h
SMILES,"EC50 ([1]; classification agonist, read-out: LXRb pEC50/pIC50 (converted)) [nM]",LXR modulation in LXR-responsive ABCA1 reporter gene assay ([2]; 3 μM),antiproliferative effect ([3]; 10 μM),antiproliferative effect ([4]; 10 μM),"RORα activity ([5]; off-target profiling, compared with T0901317)",ABCA1 mRNA expression ([6]; 3 μM),APOE mRNA expression ([7]; 3 μM),IC50 [1] [nM],LXR modulation in LXR-responsive ABCA1 reporter gene assay ([2]; 10 μM),antiproliferative effect ([3]; 30 μM),antiproliferative effect ([4]; 30 μM),RORα activity ([5]; 30 μM),ABCA1 mRNA expression ([6]; 30 μM),APOE mRNA expression ([7]; 30 μM)
"CCN(C(=O)c1ccccc1)c1ccc(C(O)(C(F)(F)F)C(F)(F)F)cc1 [Compound 1, N-Ethyl-N-(4-[1,1,1,3,3,3-hexafluoro-2-hydroxypropan-2-yl]phenyl)benzamide]",589,partial LXR agonists; also recorded: partial LXR agonism,did not inhibit the proliferation,did not inhibit the proliferation,no activity; also recorded: did not affect,induced,induced,,,,,,,
"CS(=O)(=O)c1cccc(-c2ccc(CN(Cc3cccc(C(F)(F)F)c3Cl)CC(c3ccccc3)c3ccccc3)cc2)c1 [Compound 3, N-(2-Chloro-3-[trifluoromethyl]benzyl)-N-([3′-{methylsulfonyl}-{1,1′-biphenyl}-4-yl]methyl)-2,2-diphenylethan-1-amine]",,,,,,,,2950,robustly blocked LXR activation; also recorded: inverse agonist,did not inhibit the proliferation,did not inhibit the proliferation,only activated RORα with low efficacy; also recorded: weak RORα activation,did not significantly alter the expression; also recorded: only a weak impact,did not significantly alter the expression; also recorded: only a weak impact
